# Molecular target: Elastase (Pseudomonas aeruginosa (strain ATCC 15692 / DSM 22644 / CIP 104116 / JCM 14847 / LMG 12228 / 1C / PRS 101 / PAO1), UniProt P14756)
# Test: Fluorometric Assay
# Procedure: Method: 10 to 140 ng/ml purified LasB is incubated with 250 μM Abz-Ala-Gly-Leu-Ala-p-Nitro-Benzyl-Amide in 50 mM Tris-HCl pH 7.4, 2.5 mM CaCl2), 0.01% of Triton X100 at 37° C. LasB activity (corresponding to fluorescence emission induced by substrate hydrolysis) is measured over 30 min at 37° C. with a fluorescence plate reader such as the Perkin Elmer Envision or similar. Different range of inhibitor concentrations are routinely assessed depending of inhibitor potency from 0.0016 to 200 μM (2-fold dilutions series) in order to determine IC50.
# Elastase, sequence (P14756 whole entry): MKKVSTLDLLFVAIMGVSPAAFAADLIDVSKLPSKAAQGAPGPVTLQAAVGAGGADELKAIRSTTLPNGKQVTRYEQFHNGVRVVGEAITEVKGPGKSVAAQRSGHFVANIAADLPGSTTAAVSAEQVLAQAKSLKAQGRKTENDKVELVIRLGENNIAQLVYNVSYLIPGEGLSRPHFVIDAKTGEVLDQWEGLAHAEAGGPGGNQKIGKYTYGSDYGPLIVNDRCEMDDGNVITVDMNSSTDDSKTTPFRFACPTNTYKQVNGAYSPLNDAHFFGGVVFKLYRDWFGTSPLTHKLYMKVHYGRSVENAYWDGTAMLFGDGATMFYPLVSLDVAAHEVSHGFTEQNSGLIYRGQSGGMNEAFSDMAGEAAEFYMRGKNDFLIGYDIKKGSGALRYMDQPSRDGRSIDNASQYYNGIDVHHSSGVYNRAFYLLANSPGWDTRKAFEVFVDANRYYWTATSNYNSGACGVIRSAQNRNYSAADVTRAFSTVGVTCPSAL
structure (smiles),measurement,value
"COc1cc2sc(CNC(=O)C3(CC(=O)O)Cc4cc(F)c(F)cc4C3)nc2cc1C(=O)N1CCN(C)CC1 [US12247013, Example 34]",Ki,< 50 nM

# Reference: BindingDB's records for patent US12247013 (Antabio, 2025)
